The subject of this assay is RPMI-8226 leukemia. As to the kind of experiment: DTP human tumour cell line panel, 384-well format.

These results are taken from PubChem BioAssay (NCI).

Usually GI50 stands for the concentration at which growth is held to half of that of the control. By TGI is commonly meant the concentration giving total growth inhibition.

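GI50: concentration for 50% inhibition of growth. TGI denotes the concentration required for complete inhibition of growth.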 Some results are limits rather than exact numbers.

On to `CCCCCOC(=O)Nc1nc(=O)n(C2OC(C)C(O)C2O)cc1F` (configuration not stated), for which the GI50 was more than 46.9 µM and the TGI worked out at 99.8 µM.
